Results on three compounds are retold here after patent US7973083B2, “Pesticidally active compounds” (priority 2003, dated 2011).

What all share (assay type): in vivo
One series deals with Corn ‘NK58D1. Description: Field test, corn phytotoxicity after herbicide with or without insecticide (Table I). Particulars: scale 0-100. How it is done: (§1) Field tests were conducted in the following way: Corn was seeded with standard sowing implements and grown under natural conditions until the 2-3 leaf stage of corn was reached. Corn with or without insecticide treatments applied at seeding was grown at the same time. At 2-3 leaf stage, the herbicides only or in combination with the insecticide, if the insecticide has not been applied at seeding, was applied broadcast foliar over the top. At highest phytotoxicity levels for corn at five days after application and at maximal weed control levels at 16 days after application, the trial was evaluated.

For a further series, the system named is Sweet Corn ‘Jubilee SS. Description: Field test, sweet corn phytotoxicity after herbicide with or without insecticide (Table I). The conditions noted are these: scale 0-100. How it is done: as §1
The subject of a further series is Amaranthus retroflexus. Description: Field test, weed control (Table I). The conditions noted are these: scale 0-100. How it is done: as §1
A further series has as its system Corn Cecilia. Description: Glasshouse test, insecticide pre-plant incorporated followed by post application of herbicide, corn phytotoxicity (Table 2). Particulars: no insecticide, 20 days after last application. The source says:
(§2) Insecticide Pre-Plant Incorporated Followed by Post Application of the Herbicide
(§3) Prior to the planting of corn and weed, the substrate was filled into plastic pots and the different insecticides were applied with glasshouse spray equipment on bare soil at rates indicated in the results table. After the insecticide application, the substrate in the pots was mixed up in order to get an even distribution of the insecticide throughout the pot Crop and weed were planted following this procedure and grown under standard glasshouse conditions allowing optimal plant growth until 2-3 leaf stage. Then the herbicides were applied according to the rates indicated in the results table post emergent foliar over the top including standard adjuvants. The plants were visually evaluated on a scale of 0-100% wherein 0% indicated no phytotoxicity and 100% indicated full control or death. 0-15% indicates acceptable crop tolerance, 85-100% acceptable weed control. The evaluation was done at the time when maximal phytotoxicity or activity occurred.

In series [1] the test system is Solanum Nigrum. Description: Glasshouse test, insecticide pre-plant incorporated followed by post application of herbicide, weed control (Table 2). Particulars: no insecticide, 43 days after last application.
Excerpt: as §2, §3

The subject of a further series is Corn Sweet honeycomb. The experiment in a line: Glasshouse test, insecticide and herbicide tank-mixed post emergent, corn phytotoxicity (Table 3). Particulars: no insecticide, 8 days after last application.
Excerpt: (§4) Insecticide and Herbicide Applied Tank-Mixed Post Emergent
as §3, with “pots.” for “pots and the different insecticides were applied with glasshouse spray equipment on bare soil at rates indicated in the results table. After the insecticide application, the substrate in the pots was mixed up in order to get an even distribution of the insecticide throughout the pot”, “according” for “according to”

For series [2], the system named is Solanum Nigrum. Description: Glasshouse test, insecticide and herbicide tank-mixed post emergent, weed control (Table 3). The conditions noted are these: no insecticide, 34 days after last application.
Excerpt: as §4
as §3, with “pots.” for “pots and the different insecticides were applied with glasshouse spray equipment on bare soil at rates indicated in the results table. After the insecticide application, the substrate in the pots was mixed up in order to get an even distribution of the insecticide throughout the pot”, “according” for “according to”

Where [3] appears, read: insecticide alone, in furrow at seeding 11.2 GA/100 Row M, 5 days.
The mark [4] stands for this setting: insecticide alone, post 1120 GA/Ha, 5 days.
The mark [5] stands for this setting: insecticide alone, in furrow at seeding 11.2 GA/100 Row M, 16 days.
[6] abbreviates: herbicide post, mesotrione 210 GA/Ha (a.e. for Cu), no insecticide, 5 days after last application.
The mark [7] stands for this setting: herbicide post 400 GA/Ha, scale 0-100.

Turning to `CCOP(=S)(OCC)Oc1nc(Cl)c(Cl)cc1Cl` [Chlorpyrifos], the Phytotox. in the series with Corn ‘NK58D1 (setting [3]), with Corn ‘NK58D1 (setting [4]), in the series with Sweet Corn ‘Jubilee SS (setting [3]) and with Sweet Corn ‘Jubilee SS (setting [4]) was 0% each time. Moreover, the “Weed Control” value was determined as 0% with Amaranthus retroflexus (setting [5]) and 0% in the series on Amaranthus retroflexus (insecticide alone, post 1120 GA/Ha, 16 days).

Consider `CS(=O)(=O)c1ccc(C(=O)C2C(=O)CCCC2=O)c([N+](=O)[O-])c1` [Mesotrione, 2-(2′-nitro-4′-methylsulphonylbenzoyl)-1,3-cyclohexanedione], for which the Phytotox. is 3.8% in the series with Corn ‘NK58D1 (herbicide post, mesotrione 105 GA/Ha (a.e. for Cu), no insecticide, 5 days after last application, COC 1% V/V + UAN 2.5% V/V); 8.8% with Corn ‘NK58D1 (setting [6]); 16.3% in the series with Sweet Corn ‘Jubilee SS (herbicide post, mesotrione 105 GA/Ha (a.e. for Cu), no insecticide, 5 days after last application); 15% in the series with Sweet Corn ‘Jubilee SS (setting [6]); 5% in the series on Corn Cecilia (herbicide post 100 GA/Ha); 0% in the series on Corn Cecilia (herbicide post 200 GA/Ha). The Phytotox. in the series on Corn Cecilia (setting [7]) is 0%; in the series on Corn Sweet honeycomb (herbicide post 100 GA/Ha), 10%; in the series with Corn Sweet honeycomb (herbicide post 200 GA/Ha), 20%; in the series with Corn Sweet honeycomb (setting [7]), 20%. The “Weed Control” value in the series with Amaranthus retroflexus (herbicide post, mesotrione 105 GA/Ha (a.e. for Cu), no insecticide, 16 days after last application) was determined as 90%; with Amaranthus retroflexus (herbicide post, mesotrione 210 GA/Ha (a.e. for Cu), no insecticide, 16 days after last application), 95%; with Solanum Nigrum [1] (herbicide post 100 GA/Ha), 98%; in the series with Solanum Nigrum [1] (herbicide post 200 GA/Ha) it was 100%; in the series with Solanum Nigrum [1] (setting [7]) it was 0%; with Solanum Nigrum [2] (herbicide post 100 GA/Ha), 100%. Also, the “Weed Control” value in the series with Solanum Nigrum [2] (herbicide post 200 GA/Ha) and in the series with Solanum Nigrum [2] (setting [7]) was 100% each time.

In the case of `CCOP(=S)(OCC)SCSC(C)(C)C` [Terbufos], the Phytotox. with Corn ‘NK58D1 (setting [3]) and in the series with Sweet Corn ‘Jubilee SS (setting [3]) was 0% in each case. The “Weed Control” value in the series with Amaranthus retroflexus (setting [5]) came to 0%.
